The text below walks through data of US20170198011A1, “COMPOSITION FOR TREATING SEPSIS OR SEPTIC SHOCK COMPRISING THE PEPTIDE ORIGINATED FROM THE SMAD6” (Medpacto, Inc., priority 2011, published 2017).

In experiment [1] the test system is IκBα. Description: Immunoblot of LPS-induced IκBα degradation in stably transformed CMT-93 cells. It is filed as cell-based. Conditions: CMT-93 cells stably expressing the region. From the text:
To confirm the specific inhibitory activity of the Smad6 β-sheet small region against NF-κB signaling, the epithelial cell line CMT-93, which is susceptible to both TGF-β1 and LPS, was transformed to stably express the Smad6 β-sheet region.
(In general: Immunoblotting shows a protein as a band on a membrane.)

Experiment [2] deals with NF-κB. The experiment in a line: 5xNF-κB-Luc reporter luciferase assay in CMT-93 cells. The settings on record: LPS 10 ng/ml 2 hrs. It is filed as cell-based. From the text:
FIG. 2B is a graph showing results of the luciferase assay conducted with CMT-93 cells after transfection with a 5×NF-κB-Luc reporter plasmid plus an empty vector, a plasmid carrying Myc-Smad6 (400-441), or a plasmid carrying full-length Smad6, and
FIG. 3E is a graph showing TGF-β-induced luciferase activity in CMT-93 cells transformed with a 5×NF-κB-Luc reporter plasmid plus an empty vector or a Myc-Smad6 (422-441) plasmid;
(§1) To examine whether the small region of Smad6 MH2 domain specifically suppresses LPS-induced NF-κB signaling, a 5×NF-κB-Luc reporter plasmid and an SBE (Smad binding element)-Luc reporter plasmid were separately transfected, together with a plasmid expressing a peptide from amino acid 400 to 441 of Smad6, into a CMT-93 epithelial cell line with the aid of Effectene (Qiagen). Following treatment with LPS (10 ng/ml) or TGF-β1 (5 ng/ml) for 2 hrs, the transfected cells were examined for luciferase activity. […] All experiments were independently repeated three times, while a full-length Smad6 plasmid was used as a control.

In experiment [3] the test system is TGF-β1 signaling (Smad binding element). The experiment in a line: SBE-Luc reporter luciferase assay in CMT-93 cells. It is filed as cell-based. Conditions: TGF-β1 5 ng/ml 2 hrs.
Description: FIG. 2A is a graph showing results of the luciferase assay conducted with CMT-93 cells after transfection with SBE-Luc reporter plasmid plus an empty vector, a plasmid carrying Myc-Smad6 (400-441), or a plasmid carrying full-length Smad6,
FIG. 3D is a graph showing TGF-β-induced luciferase activity in CMT-93 cells transformed with an SBE-Luc reporter plasmid plus an empty vector or a Myc-Smad6 (422-441) plasmid, and
as §1

Experiment [4] concerns the target T1, Pellino-1N domain (Homo sapiens, UniProt Q96FA3).
T1 construct: expressed in transfected cells; host or cells: HEK293
T1 sequence (Q96FA3 1-140 limits assumed): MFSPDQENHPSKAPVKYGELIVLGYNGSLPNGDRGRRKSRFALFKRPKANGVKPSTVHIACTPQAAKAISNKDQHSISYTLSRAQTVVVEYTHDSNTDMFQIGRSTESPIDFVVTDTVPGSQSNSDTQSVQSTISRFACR
The experiment in a line: Co-immunoprecipitation of Smad6 MH2 mutants with HA-tagged Pellino-1N in HEK293 cells. It is filed as binding. Conditions: truncated mutants of Smad6 MH2 domain. The source says:
To examine a minimum region of Smad6 that binds certainly to Pellino-1, which specifically interrupts NF-κB (κB nuclear factor kappa B) signaling, mutants were constructed by consecutively truncating the Smad6 MH2 domain, and analyzed using a co-immunoprecipitation assay.
[…] Plasmids carrying genes for different regions of Smad6 (Myc-Smad6 MH2, Myc-Smad6 346F, Myc-Smad6 371F, Myc-Smad6 385F, Myc-Smad6 464R, Myc-Smad6 441R, Myc-Smad6 410R, Myc-Smad6 385-441, Myc-Smad6 385-427, Myc-Smad6 385-418, Myc-Smad6 385-410, Myc-Smad6 400-441, Myc-Smad6 400-427, Myc-Smad6 400-418, Myc-Smad6 400-410, Myc-Smad6 422-441) were constructed by amplifying a full-length Smad6 cDNA by PCR and subcloning it into the BamHI/XhoI site of the pSC3+MT 6×Myc vector. Myc-Smad6 R429A, Myc-Smad6 P432A, Myc-Smad6 P433G, Myc-Smad6 Y435F, and Myc-Smad6 I437D were created using a QuikChange mutagenesis kit (Stratagene).
A co-immunoprecipitation assay was carried out as follows. […]

Experiment [5] deals with IRAK1, TRAF6, MyD88. Description: Co-immunoprecipitation of Smad6 (422-441) with other TLR4 signaling proteins in HEK293 cells. It is filed as binding. Conditions: Flag-IRAK1, Flag-TRAF6, Flag-MyD88. The procedure:
(§2) A co-immunoprecipitation assay was carried out as follows. For use as antibodies in co-immunoprecipitation, mouse anti-HA (F-7), mouse anti-c-Myc (9E10), rabbit anti-IκBα (C-21), mouse anti-IRAK1 (F-4), and mouse anti-TRAF6 (D-10) were purchased from Santa Cruz Biotechnology (USA), the antibodies rabbit anti-Pellino-1 and rabbit anti-IRAK4 from Imgenex, the antibodies rabbit anti-Smad6, rabbit anti-MyD88 (D80F5), rabbit anti-IKKα, rabbit anti-phospho-IKKα/β, rabbit anti-RIP1 (D94C12), rabbit anti-IKKi (anti-IKKE; D61F9), rabbit anti-TBK1 (D1B4), rabbit anti-GRK2 from Cell Signaling, and the antibody anti-β-actin from Sigma. Cells were lysed in a lysis buffer (PBS containing 0.5% Triton X-100, 20 mM HEPES (pH 7.4), 150 mM NaCl, 12.5 mM β-glycerol phosphate, 1.5 mM MgCl2, 10 mM NaF, 2 mM DTT, 1 mM Na3O4V, 2 mM EGTA, 1 mM PMSF and protease inhibitor mixture), and harvested by centrifuging 13,000 rpm for 10 min. For immunoprecipitation, the cell lysate were incubated at 4° C. for 12 hrs with protein-A agarose beads and the above-mentioned antibodies. Afterwards, the beads were washed three times with a lysis buffer, and treated with a 2× sample buffer to separate the co-immunoprecipitates therefrom. The co-immunoprecipitates were boiled, followed by SDS-PAGE. […]

Experiment [6] has as its target T2, Pellino-1 (Homo sapiens, UniProt Q96FA3).
T2 construct: plus an HA-tagged full length Pellino-1 plasmid; expressed in transfected cells; host or cells: HEK293
T2 sequence (Q96FA3 1-418): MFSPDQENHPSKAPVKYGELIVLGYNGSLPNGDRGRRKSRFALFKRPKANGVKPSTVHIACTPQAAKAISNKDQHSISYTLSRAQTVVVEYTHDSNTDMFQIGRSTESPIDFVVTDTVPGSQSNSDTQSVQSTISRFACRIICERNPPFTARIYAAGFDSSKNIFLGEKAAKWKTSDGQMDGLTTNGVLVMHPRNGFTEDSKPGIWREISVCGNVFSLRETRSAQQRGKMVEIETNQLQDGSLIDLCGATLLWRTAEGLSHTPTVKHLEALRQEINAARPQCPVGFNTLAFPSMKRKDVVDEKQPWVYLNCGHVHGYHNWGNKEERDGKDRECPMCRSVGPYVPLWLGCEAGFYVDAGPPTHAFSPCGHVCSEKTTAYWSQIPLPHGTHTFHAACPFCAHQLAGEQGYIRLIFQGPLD
The experiment in a line: Co-immunoprecipitation of Smad6 truncated mutants with HA-tagged full length Pellino-1 in HEK293 cells. It is filed as binding. As for the experimental part: as §2

Where no end group is shown, it is not given here.

“Myc-Smad6 400-441: plasmid-expressed Myc-tagged peptide region from amino acid 400 to 441 of the Smad6 MH2 domain (VWAYNRGEHPIFVNSPTLDAPGGRALVVRKVPPGYSIKVFDF; also: Myc tag, plasmid-expressed; UniProt O43541 400-441, looked up, fragment)”: in experiment [1], the “LPS-induced IκBα degradation detected” value is “not”. Moreover, the NF-κB-mediated reporter activity result in experiment [2] is listed as “selectively suppressed”. Besides, in experiment [3], the TGF-β1-mediated reporter activity entry is on record as “did not suppress”. Besides, the “interaction with the Pellino-1N domain” value in experiment [4] was “interact”.

Turning to “Myc-Smad6 422-441: plasmid-expressed Myc-tagged minimum region, amino acid 422 to 441 of Smad6 (GGRALVVRKVPPGYSIKVFD; also: Myc tag, plasmid-expressed)”, the “binding to other proteins involved in the TLR4 signaling pathway” value in experiment [5] is listed as “not to other proteins involved in the TLR4 signaling pathway”. Also, in experiment [2], the NF-κB-mediated reporter activity entry was “specifically suppressing”. For the same molecule, the “binding to Pellino-1” value in experiment [6] is “sufficient and minimally required”. The TGF-β1-mediated reporter activity result in experiment [3] is “did not suppressed”.

B1: full-length Smad6: full-length Smad6 plasmid used as a control (protein, UniProt O43541 1-496, looked up)
chain: MFRSKRSGLVRRLWRSRVVPDREEGGSGGGGGGDEDGSLGSRAEPAPRAREGGGCGRSEVRPVAPRRPRDAVGQRGAQGAGRRRRAGGPPRPMSEPGAGAGSSLLDVAEPGGPGWLPESDCETVTCCLFSERDAAGAPRDASDPLAGAALEPAGGGRSREARSRLLLLEQELKTVTYSLLKRLKERSLDTLLEAVESRGGVPGGCVLVPRADLRLGGQPAPPQLLLGRLFRWPDLQHAVELKPLCGCHSFAAAADGPTVCCNPYHFSRLCGPESPPPPYSRLSPRDEYKPLDLSDSTLSYTETEATNSLITAPGEFSDASMSPDATKPSHWCSVAYWEHRTRVGRLYAVYDQAVSIFYDLPQGSGFCLGQLNLEQRSESVRRTRSKIGFGILLSKEPDGVWAYNRGEHPIFVNSPTLDAPGGRALVVRKVPPGYSIKVFDFERSGLQHAPEPDAADGPYDPNSVRISFAKGWGPCYSRQFITSCPCWLEILLNNPR
modifications: full-length
notes: full-length Smad6 plasmid used as a control
As for B1, in experiment [2], the NF-κB-mediated reporter activity result was “suppressed”. In addition, the TGF-β1-mediated reporter activity entry in experiment [3] was “suppressed”.
